Results published in the supplement of paper PMC11208160.

Experiment: recombinant UMI read abundance after kanamycin selection (control-corrected) (log10(CPM+1)); higher = more efficient recombination; extreme values may be limits of the assay; sequences stand for … in AGTGCAGAGAAAATCGGCCAGTTTTCTCTGCCTGCAGTCCGCATGCCGTGGGACCCCTTGGGTTCTAACCTGTTGCCTAGATTTATGCAGCGGACTGCCTTTCTCCCAAAGTGATAAACCGG…AGGTTGGTTTCACT; site = the 11-nt donor
Procedure, shortened: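 Each donor and donor-binding-loop pair was tracked by a 12-nt UMI on a plasmid carrying a promoterless kanamycin gene. With a second plasmid supplying a fixed target and T7-inducible IS621 bridge recombinase, the pool was plated in Escherichia coli on IPTG (0.07 mM) plus kanamycin or unselected. Sequencing of recombinant UMIs across the donor–target junction gave counts expressed as log10(CPM+1) after replicate averaging and control-derived scaling.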
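Note: IS621 bridge recombinase in Escherichia coli cells against a fixed T5 target plasmid.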

Sequence | recombinant UMI read abundance (log10)
CTCACTACATGGACCGGTTTTCCCGGTAATCCGTATTTGAG (site CTCTCTACTCT) | 0
CTCACTCCATGGACCGGTTTTCCCGGTAATCCGTATTTGTA (site CTCACTCCTTA) | 0.981
CTCATACCATGGACCGGTTTTCCCGGTAATCCGTATTTGGT (site CTCATACCTAC) | 0
CTCATATCATGGACCGGTTTTCCCGGTAATCCGTATTTGAC (site CTAGTATCTGT) | 0
CTCATATCATGGACCGGTTTTCCCGGTAATCCGTATTTGAC (site CTCATATCTGT) | 1.29
CTCATTTCATGGACCGGTTTTCCCGGTAATCCGTATTTGTG (site CTCATTTCTCA) | 0
CTCCAAGCATGGACCGGTTTTCCCGGTAATCCGTATTTGAG (site ATCCAAGCTCT) | 0.0148
CTCCAAGCATGGACCGGTTTTCCCGGTAATCCGTATTTGAG (site CTCCAAGCTCT) | 0.456
CTCCAAGCATGGACCGGTTTTCCCGGTAATCCGTATTTGAG (site GTCCAAGCTCT) | 0.0157
CTCCAAGCATGGACCGGTTTTCCCGGTAATCCGTATTTGAG (site TTCCAAGCTCT) | 0.018
CTCCACACATGGACCGGTTTTCCCGGTAATCCGTATTTGAC (site CTCCACACTGT) | 2.47
CTCCACACATGGACCGGTTTTCCCGGTAATCCGTATTTGTA (site CACCACACTTA) | 1.47
CTCCACACATGGACCGGTTTTCCCGGTAATCCGTATTTGTA (site CCCCACACTTA) | 0.728
CTCCACACATGGACCGGTTTTCCCGGTAATCCGTATTTGTA (site CGCCACACTTA) | 0.289
CTCCACACATGGACCGGTTTTCCCGGTAATCCGTATTTGTA (site CTCCACACTTA) | 1.33
CTCCATACATGGACCGGTTTTCCCGGTAATCCGTATTTGAG (site CTCCATACTCT) | 1.27
CTCCATACATGGACCGGTTTTCCCGGTAATCCGTATTTGAG (site CTCCCTACTCT) | 0.0258
CTCCATACATGGACCGGTTTTCCCGGTAATCCGTATTTGAG (site CTCCGTACTCT) | 0.0224
CTCCATACATGGACCGGTTTTCCCGGTAATCCGTATTTGAG (site CTCCTTACTCT) | 0.0162

Sequence | recombinant UMI read abundance (log10)
CTCCCTACATGGACCGGTTTTCCCGGTAATCCGTATTTGAA (site CTCCCTACTAT) | 0.112
CTCCCTACATGGACCGGTTTTCCCGGTAATCCGTATTTGAA (site CTCCCTACTCT) | 0.0285
CTCCCTACATGGACCGGTTTTCCCGGTAATCCGTATTTGAA (site CTCCCTACTGT) | 0
CTCCCTACATGGACCGGTTTTCCCGGTAATCCGTATTTGAA (site CTCCCTACTTT) | 0.46
CTCCCTACATGGACCGGTTTTCCCGGTAATCCGTATTTGAC (site CTCCCTACTAT) | 0.576
CTCCCTACATGGACCGGTTTTCCCGGTAATCCGTATTTGAC (site CTCCCTACTCT) | 0.293
CTCCCTACATGGACCGGTTTTCCCGGTAATCCGTATTTGAC (site CTCCCTACTGT) | 1.88
CTCCCTACATGGACCGGTTTTCCCGGTAATCCGTATTTGAC (site CTCCCTACTTT) | 0.415
CTCCCTACATGGACCGGTTTTCCCGGTAATCCGTATTTGAG (site ATCCCTACTCT) | 0.0141
CTCCCTACATGGACCGGTTTTCCCGGTAATCCGTATTTGAG (site CACCCTACTCT) | 0.112
CTCCCTACATGGACCGGTTTTCCCGGTAATCCGTATTTGAG (site CCCCCTACTCT) | 0.0077
CTCCCTACATGGACCGGTTTTCCCGGTAATCCGTATTTGAG (site CGCCCTACTCT) | 0.0122
CTCCCTACATGGACCGGTTTTCCCGGTAATCCGTATTTGAG (site CTACCTACTCT) | 0.0126
CTCCCTACATGGACCGGTTTTCCCGGTAATCCGTATTTGAG (site CTCACTACTCT) | 0.0117
CTCCCTACATGGACCGGTTTTCCCGGTAATCCGTATTTGAG (site CTCCATACTCT) | 0.00249
CTCCCTACATGGACCGGTTTTCCCGGTAATCCGTATTTGAG (site CTCCCAACTCT) | 0.00701
CTCCCTACATGGACCGGTTTTCCCGGTAATCCGTATTTGAG (site CTCCCCACTCT) | 0.0165
CTCCCTACATGGACCGGTTTTCCCGGTAATCCGTATTTGAG (site CTCCCGACTCT) | 0.0234
